Data on two compounds can be found in publication PMC6591251, “Discovery of potent necroptosis inhibitors targeting RIPK1 kinase activity for the treatment of inflammatory disorder and cancer metastasis” (Cell Death & Disease, 2019).

“Also recorded” adds a separate entry of the source.

The test system of assay [1] is NF-κB activation in HT-29 cells. Put plainly: TNF-induced NF-κB activation, western blot of IκB-α and phospho-IκB-α. The assay is classed as cell-based, human. As to conditions: TNF-α 40 ng/ml 15 min. The protocol: (§1) Further, we evaluated the selectivity of PK68 against a panel of 369 kinases provided by Reaction Biology (at 1000 nM). […] In addition, we followed on some of the active “hits” from the kinome scan. PK68 was tested against TNIK and TRKA by a reputable CRO company. […] RIPK1 is known to mediate NF-κB activation independently of its kinase activity. […] It has been shown that homodimerization of RIPK3 or MLKL induced by the dimerizer leads to necroptosis bypassing the upstream signals[10],[37]. […] This dimerized RIPK3-induced necroptosis was blocked by RIPK3 inhibitor GSK873 but was not blocked by the RIPK1 inhibitor necrostatin-1. […] (Fig. 4e).
HT-29 cells were pretreated with indicated compounds for 1h prior to stimulation with TNF-α (40ng/ml) for 15 minutes. The levels of IκB-α and phosphor-IκB-α were analyzed by western blot analysis. The NF-κB inhibitor BMS-345541 was used as a positive control.
Background: Immunoblotting shows a protein as a band on a membrane.

The test system of assay [2] is rat bone marrow-derived macrophages. Put plainly: TNFR- and TLR-mediated necroptosis. The assay is classed as cell-based. As to conditions: rat BMDM; PK6 10 μM, PK68 100 nM; 24–30 h. The text has this: (§2) In addition to TNF-induced necroptosis, it is known that TLR3 or TLR4 activation can also trigger necroptosis. We further evaluated the effects of PK6 and PK68 on TLR3- and TLR4-mediated necroptosis induced by poly(I:C)/z-VAD and LPS/z-VAD, respectively. […] To investigate the molecular mechanism of PK series-mediated necroptosis inhibition, we examined the effects of these compounds on the major steps of necroptotic signaling, including activation of RIPK1, RIPK3, and MLKL. […] It has been shown previously that RIPK3 activation leads to the formation of RIPK3 puncta during necroptosis.
(§3) Fig. 3 PK6 and PK68 block cellular activation of RIPK1, RIPK3, and MLKL upon necroptotic stimuli. a, b Bone marrow-derived macrophages from C57BL/6 mice or rat were pretreated with DMSO, PK6(10 μM), or PK68 (100 nM) for 1 h and subsequently treated with indicated stimuli for 24–30 h. Cell viability was determined by measuring ATP levels. L, LPS (20 ng/ml); P, poly(I:C) (50 μg/ml); S (100 nM); Z (10 μM). […] The distribution of RIPK3 was detected by immunofluorescence. *P < 0.05. **P < 0.01. ***P < 0.001 […]
(§4) The cell viability was analyzed by using the CellTiter-Glo Luminescent Cell Viability Assay kit following the manufacturer’s instructions (Promega). Luminescence was measured with SpectraMax i3x (Molecular Devices).

Assay [3] deals with mouse bone marrow-derived macrophages. Put plainly: TLR3- and TLR4-mediated necroptosis (poly(I:C)/z-VAD, LPS/z-VAD). The assay is classed as cell-based. As to conditions: mouse BMDM; PK6 10 μM, PK68 100 nM; 24–30 h.
Source text: as §2, §3, §4

The test system of assay [4] is phosphorylation of RIPK1, RIPK3, and MLKL in HT-29 cells. The experiment in a line: Western blot of necroptotic signaling after T/S/Z. The assay is classed as cell-based, human. Particulars: T/S/Z 8 h.
Source text: as §2
as §3, with “μM). Data are represented as the mean ± standard deviation of triplicates. c HT-29 cells were treated with the indicated compound for 1 h prior to the treatment of T (40 ng/ml), S (100 nM), and Z (20 μM) for additional 8 h.” for “μM).”

Another assay deals with NIH3T3-RIPK3 cells. The experiment in a line: TNF-induced necroptosis (T/S/Z). The assay is classed as cell-based, mouse. Particulars: T/S/Z 24 h. The protocol: Recombinant proteins were incubated with PK6 and PK68 as indicated. […] NIH3T3-RIPK3 cells were pretreated with indicated compounds for 1 h and subsequently treated with T (40 ng/ml)/S (100 nM)/Z (20 μM) or AP20187 (100 nM) for 24 h. Cell viability was determined by measuring ATP levels. e PK6 and PK68 have no effect on MLKL dimerization-induced cell death in HeLa-MLKL (1–190) cells that stably express MLKL (1–190aa) fused to DmrB. HeLa-MLKL (1–190) cells were pretreated with indicated compounds for 1 h and subsequently treated with AP20187 (100 nM) for 24 h. Cell viability was determined by measuring ATP levels.
as §4

A further assay concerns the target TRKA (Homo sapiens, UniProt P04629). Put plainly: Kinase activity assay at a CRO. Particulars: CRO company. The assay is classed as biochemical. The method, then: as §1
(§5) Supplementary Figure 20. The kinase activity assays of PK68 in TNIK and TRKA in vitro, Staurosporine as control.
(§6) (A) The IC50 values were obtained by increasing concentrations of PK68 and Staurosporine in TNIK. (B) The IC50 values were obtained by increasing concentrations of PK68 and Staurosporine in TRKA.

Another assay has as its target TNIK (Homo sapiens, UniProt Q9UKE5). Put plainly: Kinase activity assay at a CRO. The assay is classed as biochemical. Particulars: CRO company. The method, then: as §1, §5, §6

Chain of TNIK (Q9UKE5 whole entry): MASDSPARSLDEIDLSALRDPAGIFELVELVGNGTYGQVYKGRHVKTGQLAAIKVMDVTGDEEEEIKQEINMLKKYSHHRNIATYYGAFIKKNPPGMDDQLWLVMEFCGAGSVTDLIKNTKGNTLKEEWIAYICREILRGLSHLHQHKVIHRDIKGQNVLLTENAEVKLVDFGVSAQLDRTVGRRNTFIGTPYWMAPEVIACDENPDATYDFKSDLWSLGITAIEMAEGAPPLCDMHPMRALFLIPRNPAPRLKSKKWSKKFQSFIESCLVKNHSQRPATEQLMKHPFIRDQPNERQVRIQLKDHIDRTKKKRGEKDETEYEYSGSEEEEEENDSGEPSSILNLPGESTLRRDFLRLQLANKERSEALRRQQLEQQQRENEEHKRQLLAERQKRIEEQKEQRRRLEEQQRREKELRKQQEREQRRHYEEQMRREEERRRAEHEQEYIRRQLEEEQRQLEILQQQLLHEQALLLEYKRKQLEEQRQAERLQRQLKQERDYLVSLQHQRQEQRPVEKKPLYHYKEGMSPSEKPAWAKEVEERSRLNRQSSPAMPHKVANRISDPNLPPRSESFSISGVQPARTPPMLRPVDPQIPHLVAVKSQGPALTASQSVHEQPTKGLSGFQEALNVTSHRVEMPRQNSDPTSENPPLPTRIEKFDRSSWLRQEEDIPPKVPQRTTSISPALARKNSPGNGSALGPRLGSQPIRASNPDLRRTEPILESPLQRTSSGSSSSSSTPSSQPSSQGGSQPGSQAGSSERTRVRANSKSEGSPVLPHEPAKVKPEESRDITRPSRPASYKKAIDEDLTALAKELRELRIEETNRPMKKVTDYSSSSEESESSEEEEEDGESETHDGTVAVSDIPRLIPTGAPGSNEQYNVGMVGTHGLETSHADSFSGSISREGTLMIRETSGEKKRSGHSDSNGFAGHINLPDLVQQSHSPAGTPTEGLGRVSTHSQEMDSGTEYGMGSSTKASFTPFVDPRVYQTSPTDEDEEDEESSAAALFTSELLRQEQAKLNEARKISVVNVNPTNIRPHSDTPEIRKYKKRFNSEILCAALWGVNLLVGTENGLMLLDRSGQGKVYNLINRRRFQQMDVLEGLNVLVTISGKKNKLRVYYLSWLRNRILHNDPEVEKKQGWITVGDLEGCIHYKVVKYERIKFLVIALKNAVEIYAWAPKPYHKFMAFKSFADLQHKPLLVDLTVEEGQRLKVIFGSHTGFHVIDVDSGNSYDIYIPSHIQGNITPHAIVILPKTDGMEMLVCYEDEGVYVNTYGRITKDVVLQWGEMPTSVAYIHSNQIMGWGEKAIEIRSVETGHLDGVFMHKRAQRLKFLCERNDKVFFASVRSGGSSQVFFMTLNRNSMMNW
Chain of TRKA (P04629 33-796): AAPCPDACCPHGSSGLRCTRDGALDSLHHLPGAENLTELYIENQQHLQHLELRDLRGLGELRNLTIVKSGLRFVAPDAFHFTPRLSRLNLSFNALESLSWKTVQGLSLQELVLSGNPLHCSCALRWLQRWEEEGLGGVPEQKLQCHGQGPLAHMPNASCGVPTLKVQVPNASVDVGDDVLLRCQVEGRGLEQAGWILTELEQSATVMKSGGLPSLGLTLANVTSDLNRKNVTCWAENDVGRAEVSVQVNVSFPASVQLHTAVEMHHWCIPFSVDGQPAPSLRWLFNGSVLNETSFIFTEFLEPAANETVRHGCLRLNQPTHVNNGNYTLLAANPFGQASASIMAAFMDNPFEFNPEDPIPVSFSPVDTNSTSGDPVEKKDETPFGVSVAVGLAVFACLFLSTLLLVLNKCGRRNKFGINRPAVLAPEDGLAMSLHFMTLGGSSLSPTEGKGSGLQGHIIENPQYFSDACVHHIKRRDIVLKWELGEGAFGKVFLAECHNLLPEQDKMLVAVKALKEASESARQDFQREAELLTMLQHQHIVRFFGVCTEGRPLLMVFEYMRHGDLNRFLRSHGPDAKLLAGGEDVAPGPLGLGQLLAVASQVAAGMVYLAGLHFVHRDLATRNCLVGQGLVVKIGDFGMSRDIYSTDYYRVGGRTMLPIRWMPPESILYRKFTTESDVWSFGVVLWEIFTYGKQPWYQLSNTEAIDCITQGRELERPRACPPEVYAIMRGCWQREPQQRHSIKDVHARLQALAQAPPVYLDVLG

For `CC(=O)Nc1nc2ccc(-c3cnc(Cl)c(NC(=O)Cc4ccccc4)c3)cc2s1` [PK6, N-(5-(2-acetamidobenzo[d]thiazol-6-yl)-2-chloropyridin-3-yl)-2-phenylacetamide], the “TNF-induced NF-κB activation” value in assay [1] is listed as “no obvious effects; also recorded: no impact; also recorded: no effect”. Moreover, in assay [2], the “TNFR- and TLR-mediated necroptosis” value was “showed inhibitory effects”. Further, the “TLR3- and TLR4-mediated necroptosis” value in assay [3] is listed as “significantly blocked”. The “phosphorylation of RIPK1, RIPK3, and MLKL” value in assay [4] is on record as “completely abolished”. Further, in the assay with NIH3T3-RIPK3 cells, the “TNF-induced necroptosis in NIH3T3-RIPK3 cells” value was “inhibit”.
As for `CC(=O)Nc1nc2ccc(-c3cnc(C)c(NC(=O)OC4CCCCC4)c3)cc2s1` [PK68, cyclohexyl (5-(2-acetamidobenzo[d]thiazol-6-yl)-2-methylpyridin-3-yl)carbamate], in assay [1], the “TNF-induced NF-κB activation” value was “no obvious effects; also recorded: no impact; also recorded: no effect”. In assay [2], the “TNFR- and TLR-mediated necroptosis” value is given as “showed inhibitory effects”. Also, the “TLR3- and TLR4-mediated necroptosis” value in assay [3] was “significantly blocked”. Besides, the IC50 on TRKA and on TNIK was approximately 10 µM each time. For the same compound, in assay [4], the “phosphorylation of RIPK1, RIPK3, and MLKL” value was “completely abolished”. In addition, the “TNF-induced necroptosis in NIH3T3-RIPK3 cells” value with NIH3T3-RIPK3 cells is reported as “inhibit”.

For orientation: IC50 means the point on the concentration scale where inhibition reaches its midpoint. A high value points to weaker potency in that assay.
